Here are results for 18 compounds from patent US7842324B2 (Senomyx, Inc., priority 2005, dated 2010).

One assay concerns the target T1, hT1R2/hT1R3 sweet receptor expressed in HEK293 cell line (Homo sapiens, UniProt Q7RTX0+Q8TE23).
T1 construct: expressed in transfected cells; host or cells: HEK293 derivative stably expressing Gα15 and hT1R2/hT1R3, clone S-9
T1 sequence (Q8TE23 20-839): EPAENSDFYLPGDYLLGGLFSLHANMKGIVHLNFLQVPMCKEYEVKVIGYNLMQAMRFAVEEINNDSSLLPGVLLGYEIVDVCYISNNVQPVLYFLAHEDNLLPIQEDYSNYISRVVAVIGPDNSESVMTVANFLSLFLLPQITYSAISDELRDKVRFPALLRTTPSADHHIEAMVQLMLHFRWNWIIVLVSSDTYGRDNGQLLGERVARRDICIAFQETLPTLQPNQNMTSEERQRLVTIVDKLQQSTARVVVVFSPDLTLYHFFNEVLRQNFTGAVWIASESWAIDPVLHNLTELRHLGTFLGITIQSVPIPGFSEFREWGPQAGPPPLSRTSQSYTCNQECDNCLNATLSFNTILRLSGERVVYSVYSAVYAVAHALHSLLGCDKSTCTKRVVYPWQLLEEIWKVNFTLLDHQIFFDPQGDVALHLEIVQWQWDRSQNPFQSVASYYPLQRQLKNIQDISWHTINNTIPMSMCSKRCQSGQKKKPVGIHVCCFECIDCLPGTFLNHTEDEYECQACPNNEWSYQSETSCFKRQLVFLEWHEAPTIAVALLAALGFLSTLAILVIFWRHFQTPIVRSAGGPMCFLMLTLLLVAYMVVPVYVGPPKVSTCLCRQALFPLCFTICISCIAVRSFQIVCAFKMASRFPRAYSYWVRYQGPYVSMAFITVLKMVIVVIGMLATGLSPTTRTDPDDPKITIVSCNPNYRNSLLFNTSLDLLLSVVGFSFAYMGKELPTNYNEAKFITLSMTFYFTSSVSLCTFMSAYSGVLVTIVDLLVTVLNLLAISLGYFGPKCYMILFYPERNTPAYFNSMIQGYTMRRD
T1 sequence (Q7RTX0 21-852): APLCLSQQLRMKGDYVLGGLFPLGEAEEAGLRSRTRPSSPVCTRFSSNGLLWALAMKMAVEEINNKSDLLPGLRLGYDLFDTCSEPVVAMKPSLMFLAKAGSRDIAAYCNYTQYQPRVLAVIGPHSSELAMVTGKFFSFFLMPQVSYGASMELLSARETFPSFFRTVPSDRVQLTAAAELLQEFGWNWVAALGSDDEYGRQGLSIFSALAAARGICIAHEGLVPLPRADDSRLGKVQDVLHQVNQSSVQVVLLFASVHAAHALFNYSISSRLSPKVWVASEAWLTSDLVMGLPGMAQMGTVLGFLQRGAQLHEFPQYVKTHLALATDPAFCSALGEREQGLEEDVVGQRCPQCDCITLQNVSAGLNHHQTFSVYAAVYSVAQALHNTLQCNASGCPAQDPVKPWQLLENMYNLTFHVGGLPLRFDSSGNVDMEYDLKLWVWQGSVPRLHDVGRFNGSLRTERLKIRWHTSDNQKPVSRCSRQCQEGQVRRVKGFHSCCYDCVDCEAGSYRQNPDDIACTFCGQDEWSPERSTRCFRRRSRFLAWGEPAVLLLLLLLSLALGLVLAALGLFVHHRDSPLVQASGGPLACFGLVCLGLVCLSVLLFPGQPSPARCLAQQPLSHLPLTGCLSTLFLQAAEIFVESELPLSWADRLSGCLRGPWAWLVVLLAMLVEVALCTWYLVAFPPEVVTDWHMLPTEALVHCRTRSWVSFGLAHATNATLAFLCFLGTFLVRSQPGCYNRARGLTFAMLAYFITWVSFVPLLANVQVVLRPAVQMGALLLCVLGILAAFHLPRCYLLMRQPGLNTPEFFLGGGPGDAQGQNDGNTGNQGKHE
The experiment in a line: In vitro hT1R2/hT1R3-HEK293 taste receptor activation assay (FLIPR). In kind it is cell-based. The conditions noted are these: Table A; read-out: SWEET EC50. The gist of the method:
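HEK293 cells stably expressing Gα15 and hT1R2/hT1R3 were loaded with Fluo-3AM (4 μM, 1 h, room temperature), then stimulated at room temperature in D-PBS. Peak fluorescence (ex 480/em 535 nm) was normalized to basal. Dose-responses were run in duplicate over 60 nM–30 μM, normalized to 400 mM D-fructose, and EC50 fitted by free-Hill non-linear regression.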
In the case of `CC(C)(C(=O)NCC1CC1)c1ccc(-c2cncc(C#N)c2)cc1` [Compound A84], the EC50 stood at 110 nM.
Turning to `CC(C)CCNC(=O)C(C)(C)c1ccc(-c2cncc(C#N)c2)cc1` [Compound A21], the EC50 came to 940 nM.
Still for that read-out and setting: for `CC(C)CNC(=O)C(C)(C)c1ccc(-c2cocc2C#N)cc1` [Compound A48] the value was 320 nM; for `COC(=O)c1ccccc1-c1ccc(C(C)(C)C(=O)NCC(C)C)cc1` [Compound A15], 4000 nM.
With `CC(C)CNC(=O)C(C)(C)c1ccc(-c2cscn2)cc1` [Compound A32], the EC50 is 5400 nM.
On to `CC(C)CNC(=O)C(C)(C)c1ccc(-c2ccncc2)cc1` [Compound A9], for which the EC50 came to 1660 nM.
The same measure, in the same setting: in the case of `CC(=O)c1ccccc1-c1ccc(C(C)(C)C(=O)NCC(C)C)cc1` [Compound A24] it was 1170 nM; in that of `COCc1cccc(-c2ccc(C(C)(C)C(=O)NC(C)C)cc2)c1` [Compound A57], 920 nM.
`CCC(C(=O)NCC(C)C)c1ccc(-c2ccccc2)cc1` (stereo not drawn) [Compound A93]: the EC50 was determined as 900 nM.
Still for that read-out and setting: in the case of `COC(=O)c1cncc(-c2ccc(C(C)(C)C(=O)NCC(C)C)cc2)c1` [Compound A73] it was 540 nM.
Still for that read-out and setting: for `CC[C@H](C)CNC(=O)C(C)(C)c1ccc(-c2cncc(C#N)n2)cc1` [Compound A82] the value was 30 nM; for `CC[C@@H](CO)NC(=O)C(C)(C)c1ccc(-c2cncc(C#N)c2)cc1` [Compound A75], 680 nM.

Staying with this assay, now noted: read-out: EC50 for activation of a hT1R2/hT1R3 sweet receptor expressed in HEK293 cell line.
For `COCCNC(=O)C(C)c1ccc(-c2ccccc2)c(F)c1` (stereo not drawn) [Compound 5, 2-(2-fluorobiphenyl-4-yl)-N-(2-methoxyethyl)propanamide], the EC50 is 6500 nM.
On the same count and under the same terms, for `CC(C)CNC(=O)C(C)(C)c1ccc(-c2cncc(C#N)c2)nc1` [Compound 40, 2-(5′-cyano-2,3′-bipyridin-5-yl)-N-isobutyl-2-methylpropanamide] the value was 2190 nM; for `CCOCc1cncc(-c2ccc(C(C)(C)C(=O)NCC(C)C)cc2)c1` [Compound 26, 2-(4-(5-(ethoxymethyl)pyridin-3-yl)phenyl)-N-isobutyl-2-methylpropanamide], 260 nM.
In the case of `COC(=O)c1cccc(-c2ccc(C(C)(C)C(=O)NCC(C)C)cc2)c1` [Compound 10, Methyl 4′-(1-(isobutylamino)-2-methyl-1-oxopropan-2-yl)biphenyl-3-carboxylate], the EC50 came out at 900 nM.
Same read-out and setting: in the case of `CC(C)CNC(=O)C(C)(C)c1ccc(-c2ccccc2C#N)cc1` [Compound 14, 2-(2′-cyanobiphenyl-4-yl)-N-isobutyl-2-methylpropanamide] it was 1900 nM; in that of `Cc1cc(C(C)(C)C(=O)NCC(C)C)ccc1-c1ccccc1` [Compound 50, N-isobutyl-2-methyl-2-(2-methylbiphenyl-4-yl)propanamide], 1420 nM.
